Assay results from US7538122B2, “Heterocyclic antiviral compounds” (Roche Palo Alto LLC, priority 2004, dated 2009).
Like-named read-outs stand apart in the source and are kept apart here.

Experiments:
Human CCR5 receptor = target: T1, Human CCR5 receptor (Homo sapiens, UniProt P51681); assay: Human CCR5 receptor-ligand binding assay (125I chemokine displacement on CHO-Gα16-hCCR5 cells); settings: RT 2 h
T1 construct: expressed in transfected cells
Source text: Human CCR5 Receptor-Ligand Binding Assay Protocol
Human CCR5 receptor (Genebank ID: 29169292) was cloned into mammalian expression vector, pTarget (Promega). The construct was transfected into CHO-Gα16 cells by using Fugene Reagent (Roche). Clones were selected under antibiotic pressure (G418 and Hygromycin) and sorted 4 times with a fluorescence activates cell sorter and a monoclonal antibody specific for CCR5 receptor (BD Biosciences Pharmigen, Mab 2D7, Cat. No. 555993). The clone with highest expression (100,000 copies per cell) was chosen for the binding assays.
Adherent cells in […] tissue culture flask (˜90% confluent) were harvested using 1 mM EDTA in PBS (phosphate-buffered saline) without Ca^2+ and Mg^2+. Cells were washed twice with PBS containing no Ca^2+ and Mg^2+. CHO-Gα16-hCCR5 cells were then resuspended (1×10^6/ml) in ice cold binding buffer (50 mM HEPES, 1 mM CaCl2, 5 mM MgCl2, 0.5% BSA, 0.05% NaN3, pH 7.24), pH 7.4), supplemented with freshly made 0.5% BSA and 0.05% NaN3.
Eighty μl CHO-Gα16-hCCR5 (1×10^6/ml) cells were added to 96 well plates. All dilutions were made in binding buffer (50 mM HEPES, 1 mM CaCl2, 5 mM MgCl2, 0.5% BSA, 0.05% NaN3, pH 7.24).
The plates were incubated on a cell shaker at RT for 2 h with a final concentration of 0.1 nM ^125I RANTES or ^125I MIP-1α or ^125I MIP-1β. The compound dilutions were made in PBS, 1% BSA. Total reaction volume was 100 μl per well. The test compounds were added to the cells prior to the addition of radioligand.
After incubation, the cells were harvested onto GF/C filter plates using Packard cell harvester. Filters were pretreated with 0.3% PEI/0.2% BSA for 30 min. The filter plate was washed rapidly 5 times with 25 mM HEPES, 500 mM NaCl, 1 mM CaCl2 and 5 mM MgCl2 adjusted to pH 7.1. Plates were dried in oven (70° C.) for 20 min, added with 40 μl scintillation fluid and sealed with Packard TopSeal-A. Packard Top Count was used to measure of the radioactivity for 1 min per well.
Total binding was determined with control wells added with radioisotope and buffer and the non-specific binding was determined using an excess cold RANTES to some of the control wells. Specific binding was determined by subtracting the non-specific form total binding. Results are expressed as the percentage of specific ^125I RANTES binding. IC50 values were determined using varying concentrations of the test ligand in triplicates and the data was analyzed using GraphPad Prism (GraphPad, San Diego, Calif.).

[1] = 0.1 nM 125I MIP-1β, read-out: Binding IC50 Mip-1b
[2] = 0.1 nM 125I RANTES, read-out: Binding IC50 RANTES
[3] = 0.1 nM 125I MIP-1α, read-out: Binding IC50 Mip-1a

T1 sequence (P51681 whole entry): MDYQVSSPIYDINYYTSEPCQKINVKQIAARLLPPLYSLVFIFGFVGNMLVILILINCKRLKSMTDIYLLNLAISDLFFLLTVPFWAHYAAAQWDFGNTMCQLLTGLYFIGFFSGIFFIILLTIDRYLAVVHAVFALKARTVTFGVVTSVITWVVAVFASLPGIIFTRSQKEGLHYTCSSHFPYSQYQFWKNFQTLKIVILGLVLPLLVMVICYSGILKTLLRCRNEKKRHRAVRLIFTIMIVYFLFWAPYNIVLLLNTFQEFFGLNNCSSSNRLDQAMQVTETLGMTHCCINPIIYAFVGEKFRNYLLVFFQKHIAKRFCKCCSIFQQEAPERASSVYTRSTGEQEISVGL

| IC50 (Human CCR5 receptor; [1]) [nM] | IC50 (Human CCR5 receptor; [2]) [nM] | IC50 (Human CCR5 receptor; [3]) [nM] | melting point [°C] | Molecule |
| --- | --- | --- | --- | --- |
| 10.5 | 5.1 | 4.5 |  | CCCC[C@@H]1N(CC2CCCCC2)C(=O)OC12CCN(C1CCN(C(=O)c3c(C)cccc3C)CC1)CC2 [Compound I-159, (S)-4-Butyl-3-cyclohexylmethyl-8-[1-(2,6-dimethyl-benzoyl)-piperidin-4-yl]-1-oxa-3,8-diaza-spiro[4.5]decan-2-one] |
|  | 7.3 |  |  | CCCCC1N(CC2CCCCC2)C(=O)OC12CCN(C1(C)CCN(C(=O)c3c(C)ncnc3C)CC1)CC2 (stereo not shown) [Compound I-212, 4-Butyl-3-cyclohexylmethyl-8-[1-(4,6-dimethyl-pyrimidine-5-carbonyl)-4-methyl-piperidin-4-yl]-1-oxa-3,8-diaza-spiro[4.5]decan-2-one; compound with trifluoro-acetic acid] |
|  | 8.2 |  |  | CCCCC1N(CC2CCCCC2)C(=O)OC12CCN(C1(C)CCN(C(=O)c3c(C)nn(Cc4ccccc4)c3C)CC1)CC2 (stereo not shown) [Compound I-214, 8-[1-(1-Benzyl-3,5-dimethyl-1H-pyrazole-4-carbonyl)-4-methyl-piperidin-4-yl]-4-butyl-3-cyclohexylmethyl-1-oxa-3,8-diaza-spiro[4.5]decan-2-one; compound with trifluoro-acetic acid] |
|  |  |  | 246.9 to 248 | CCCCN1C(=O)C([C@@H](O)C2CCCCC2)NC(=O)C12CCN(C1CCN(C(=O)c3c(C)cccc3C)CC1)CC2 (stereo partly drawn) [Compound I-76, 1-Butyl-3-((S)-cyclohexyl-hydroxy-methyl)-9-[1-(2,6-dimethyl-benzoyl)-piperidin-4-yl]-1,4,9-triaza-spiro[5.5]undecane-2,5-dione] |
| 13 | 14 | 18 |  | CCCCC1N(CC2CCCCC2)C(=O)OC12CCN(C1CCN(C(=O)c3c(C)cccc3C)CC1)CC2 (stereo not shown) [Compound I-1, 4-Butyl-3-cyclohexylmethyl-8-[1-(2,6-dimethyl-benzoyl)-piperidin-4-yl]-1-oxa-3,8-diaza-spiro[4.5]decan-2-one] |
| < 1.5 | 7.7 |  |  | CCCCC1CN(CC2CCOCC2)C(=O)OC12CCN(C1(C)CCN(C(=O)c3c(C)ncnc3C)CC1)CC2 (stereo not shown) [Compound I-415, 5-Butyl-9-[1-(4,6-dimethyl-pyrimidine-5-carbonyl)-4-methyl-piperidin-4-yl]-3-(tetrahydro-pyran-4-ylmethyl)-1-oxa-3,9-diaza-spiro[5.5]undecan-2-one; compound with trifluoro-acetic acid] |

| Molecule | IC50 (Human CCR5 receptor; [1]) [nM] | IC50 (Human CCR5 receptor; [2]) [nM] | IC50 (Human CCR5 receptor; [3]) [nM] | melting point [°C] |
| --- | --- | --- | --- | --- |
| 4-Butyl-8-[1-(2,6-dimethyl-benzoyl)-piperidin-4-yl]-3-(2-methyl-butyl)-1-oxa-3,8-diaza-spiro[4.5]decan-2-one; compound with trifluoro-acetic acid [Compound I-90] | 1.8 | 5.1 |  |  |
